Legend:
BMI1 = BMI1 expression in HNSCC tumors by immunostaining and Western blot; type: in vivo, mouse; settings: immunostaining and Western blot of HNSCC tumors
Experimental: (§1) Cells were lysed using the radioimmunoprecipitation assay (RIPA) buffer (Sigma-Aldrich, Cat #R0278) added with a cocktail of protease inhibitors (Thermo Fisher Scientific, Cat ##78430) and phosphatase inhibitors (Sigma-Aldrich, Cat #4906845001). Protein extracts were resolved on a 10% or 15% SDS polyacrylamide gel and then transferred to a polyvinylidene difluoride membrane. Membranes were blocked with 5% milk for 1 h and incubated with primary antibodies overnight at 4° C. […] The signals were detected using the Clarity Western ECL kit (Bio-Rad, Cat #1705060). […] After treatment, supernatants were collected, and the protein levels of CCL5, CXCL9, CXCL10 and CXCL11 were measured with ELISA (R&D Systems, Cat #DRN00B, DCX900, DIP100, DCX110) according to the manufacturer's instructions.

CD8+ T cells = assay: Flow cytometry of T cells in lymph nodes, blood and spleen; type: in vivo, mouse; settings: blood and spleen of 4NQO-induced HNSCC mice
Description: PBMCs were isolated from blood using Ficoll-Paque Plus density gradient centrifugation (GE Healthcare Life Sciences, Cat #17-1440). Cervical lymph nodes and spleens were collected and processed into single-cell suspensions through mechanical separation. The isolated or dissociated cells were stained with the specific surface marker antibodies, anti-CD3-FITC (eBioscience, Cat #11-0031), anti-CD4-APC (eBioscience, Cat #17-0041), and anti-CD8-PerCP-Cy5.5 (eBioscience, Cat #45-0081) in PBS with FBS for 30 min at 4° C. Intracellular staining of IFNγ was performed as follows: cells were stimulated with PMA and ionomysin cocktail (eBioscience, Cat #00-4970) for 5 h at 37° C. with 5% CO2. Cells were washed and stained with surface marker antibodies, then fixed and permeabilized with a fixation/permeabilization kit (BD Bioscience, Cat #554715) and intracellularly stained with anti-IFNγ-PE (eBioscience, Cat #12-7311). For proper compensation of flow cytometry channels, single-stain samples were utilized, and for gating, isotype controls were applied. The stained cells were analyzed on the BD FACS flow cytometer, and data analyzed using Flowjo software.

SCC23 cells = assay: RNA-Seq and GO analysis in SCC23 cells; type: cell-based, human
Experimental: Total RNA was isolated from PTC209-treated or shBMI1 knockdown SCC cells using a RNeasy Micro Kit (QIAGEN, Cat #74004). RNA quality was examined using an Agilent 2100 Bioanalyzer. Library preparation using the KAPA RNA-Seq Library Preparation Kits (KAPA Biosystems, Cat #07960140001) was performed at the UCLA sequencing core facility, and RNAs were single-end sequenced on Illumina HiSeq 3000 machines. The online DAVID bioinformatics resources were used to analyze the differentially expressed genes under the category of GOTERM_BP_DIRECT. The heatmap was generated with Heatmap Builder. The raw data was deposited at the Gene Expression Omnibus (GEO) under the subseries entry GSE140433.

[1] = tested on: CCL5, CXCL9, CXCL10, and CXCL11; assay: qRT-PCR and ELISA of CCL5, CXCL9, CXCL10, CXCL11 in SCC cells; type: cell-based, human; settings: SCC1 and SCC23 cells
Experimental: (§2) For qRT-PCR, total RNA was prepared using TRIzol reagent (Thermo Fisher Scientific Cat #15596026), and 1 μg of RNA was reversely transcribed with random primer (Thermo Fisher Scientific Cat #48190011), dNTP mix (Thermo Fisher Scientific, Cat #18427013), and M-MuLV Reverse Transcriptase (New England Biolabs, Cat #M0253L). The levels of mRNA were […] measured using a SYBRGreen supermix (Bio-Rad, Cat #1708880). GAPDH was used as an internal control.
as §1

pH2A.X = assay: DNA damage in SCC23 and SCC1 cells (pH2A.X, alkaline comet assay); type: cell-based, human
Experimental: Cells were lysed using the radioimmunoprecipitation assay (RIPA) buffer (Sigma-Aldrich, Cat #R0278) added with a cocktail of protease inhibitors (Thermo Fisher Scientific, Cat ##78430) and phosphatase inhibitors (Sigma-Aldrich, Cat #4906845001). Protein extracts were resolved on a 10% or 15% SDS polyacrylamide gel and then transferred to a polyvinylidene difluoride membrane. Membranes were blocked with 5% milk for 1 h and incubated with primary antibodies overnight at 4° C. Primary antibodies used in this study were: anti-phospho-STING (Ser366) (1:1,000; Cell Signaling Technology, Cat #19781), anti-STING (1:1,000; Cell Signaling Technology, Cat #13647), anti-phospho-TBK1 (Ser172) (1:1,000; Cell Signaling Technology, Cat #5483), anti-TBK1 (1:1,000; Cell Signaling Technology, Cat #3504), anti-phospho-IRF3 (Ser396) (1:1,000; Cell Signaling Technology, Cat #29047), anti-IRF3 (1:1,000; Cell Signaling Technology, Cat #4302), anti-BMI1 (1:1,000; Cell Signaling Technology, Cat #6964), anti-Ubiquityl-Histone H2A (Lys119) (1:1000, Cell Signaling Technology, Cat #8240), anti-phospho Histone H2A.X (Ser139) (1:1000; Cell Signaling Technology, Cat #9718), and anti-GAPDH (1:1000; Cell Signaling Technology, Cat #5174), anti-Histone H3 (1:2,000; Cell Signaling Technology, Cat #4499). The signals were detected using the Clarity Western ECL kit (Bio-Rad, Cat #1705060). To measure the protein levels of CCL5, CXCL9, CXCL10 and CXCL11, cells were treated with PTC209 or shBMI1 knockdown for 48 hr. After treatment, supernatants were collected, and the protein levels of CCL5, CXCL9, CXCL10 and CXCL11 were measured with ELISA (R&D Systems, Cat #DRN00B, DCX900, DIP100, DCX110) according to the manufacturer's instructions.
Single cell gel electrophoresis comet assays were performed using the SCGE assay Kit (Enzo Life Sciences, Cat #ADI-900-166). Following the treatment, cells were mixed with low melting point agarose at a volume ratio of 1:50, and 100 μl of aliquots were loaded onto pre-warmed slides. Slides were incubated in pre-chilled lysis solution for 1 h and then in pre-chilled alkaline solution for 1 h. Electrophoresis was run at 22 V in the TBE buffer for 30 min. Comets were stained with CYGREEN dye for 30 min and imaged. 50 individual cells at least per sample were evaluated in duplicates by the CASP Version 1.2.2 analysis tool.

pIRF3 = pIRF3 immunofluorescent staining in 4NQO-induced HNSCC; design: species or system mouse; settings: 4NQO-induced HNSCC in vivo
IFNβ = assay: qRT-PCR of IFNβ mRNA; type: cell-based, human; settings: SCC23 cells
Experimental: as §2

B16 melanoma = type: in vivo, mouse; settings: B16 tumors in immunocompetent mice
Experimental: C57/6J mice were injected in the flank subcutaneously with B16 melanoma cells (250,000 cells per site). Tumors were measured every 3 days once palpable (long diameter and short diameter) with a caliper. Tumor volume was determined using the volume formula for an ellipsoid: ½×D×d^2 where D is the longer diameter and d is the shorter diameter. Mice were sacrificed when tumors reached 1000 mm^3 or upon ulceration/bleeding.

[2] = tested on: neutrophils and MDSCs (Gr1+CD11b+ cells); assay: Immunofluorescent staining of neutrophils and MDSCs in HNSCC; type: in vivo, mouse; settings: 4NQO-induced HNSCC
[3] = tested on: CSCs isolated from human colorectal cancers; settings: cited from earlier work

SMILES: COc1cc(Br)c(Nc2nc(-c3c(C)nc4ncccn34)cs2)c(Br)c1 [PTC209, N-(2,6-dibromo-4-methoxyphenyl)-4-(2-methylimidazo[1,2-a]pyrimidin-3-yl)thiazol-2-amine]
- BMI1 expression in tumors (BMI1): Reduction of BMI1 expression
- percentage of CD8+ T cells and IFNγ-produced CD8+ T cells (CD8+ T cells): no significant alteration in the percentage of CD8+ T cells and IFNγ-produced CD8+ T cells
- IFN-regulated chemokines (CCL5, CXCL9, CXCL10, and CXCL11), RNA-seq heatmap (SCC23 cells): significantly increased
- GO analysis of induced genes (SCC23 cells; RNA-Seq): induced the expression of genes associated with immune response and chemotaxis
- expression of CCL5, CXCL9, CXCL10, and CXCL11 [1]: significantly increased the expression of CCL5, CXCL9, CXCL10, and CXCL11 in both SCC1 and SCC23 cells
- Olive tail moment (pH2A.X; alkaline comet assay): significantly increased the Olive tail moment in SCC23 and SCC1 cells
- pH2A.X (pH2A.X; immunostaining and Western blot): increased pH2A.X in SCC23 and SCC1 cells
- pIRF3 in HNSCC (pIRF3): significantly increased
- IFNβ mRNA expression (IFNβ): induction of IFNβ mRNA expression in SCC23 cells
- melanoma resistance to anti-PD1 (B16 melanoma): overcomes melanoma resistance to anti-PD1 by recruiting CD8+ T cells
- percentage of neutrophils and MDSCs (Gr1+CD11b+ cells) in HNSCC [2]: does not significantly change the percentage of neutrophils and MDSCs (Gr1^+CD11b^+ cells) in HNSCC
- colorectal tumor growth and frequency of CSCs ([3]; mouse xenograft models): inhibited colorectal tumor growth and reduced the frequency of CSCs in mouse xenograft models
- self-renewal of CSCs ([3]; xenografted nude mouse model): abolish the self-renewal of CSCs isolated from human colorectal cancers

From patent US20230233566A1, “INHIBITION OF BMI1 ELIMINATES CANCER STEM CELLS AND ACTIVATES ANTITUMOR IMMUNITY” (The Regents of the University of California, priority 2020, published 2023)
